Measurements published in patent US7858630B2, “D3 and 5-HT2A receptor modulators” (Hoffmann-La Roche Inc., priority 2008, dated 2010).

Key:
[1] = molecular target: T1, human dopamine D2 receptor (Homo sapiens, UniProt P14416); assay: Radioligand binding ([3H]-spiperone) to membranes of HEK-293 EBNA cells expressing human D2 receptor; conditions: human D2, 0.7 nM [3H]-spiperone, HEK-293 EBNA membranes, 1 h at RT
T1 construct: expressed in transfected cells; host or cells: HEK-293 EBNA cells, transient transfection; membrane preparation
Method in brief: (§1)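 Membranes from HEK-293 EBNA cells transiently transfected with the receptor were incubated 1 h at RT with ten test concentrations (10 μM–0.1 nM) and ~0.7 nM [3H]-spiperone (D2), 0.5 nM [3H]-spiperone (D3) or 1.1 nM [3H]-ketanserin (5-HT2A). Nonspecific binding was set with 10 μM spiperone, bound radioactivity was read by filtration and scintillation, and Ki was taken from IC50 via Cheng-Prusoff.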

[2] = molecular target: T2, human dopamine D3 receptor (Homo sapiens, UniProt P35462); assay: Radioligand binding ([3H]-spiperone) to membranes of HEK-293 EBNA cells expressing human D3 receptor; conditions: human D3, 0.5 nM [3H]-spiperone, HEK-293 EBNA membranes, 1 h at RT
T2 construct: expressed in transfected cells; host or cells: HEK-293 EBNA cells, transient transfection; membrane preparation
Method in brief: as §1

[3] = molecular target: T3, human serotonin 5-HT2A receptor (Homo sapiens, UniProt P28223); assay: Radioligand binding ([3H]-ketanserin) to membranes of HEK-293 EBNA cells expressing human 5-HT2A receptor; conditions: 1.1 nM [3H]-ketanserin, HEK-293 EBNA membranes, 1 h at RT
T3 construct: expressed in transfected cells; host or cells: HEK-293 EBNA cells, transient transfection; membrane preparation
Method in brief: as §1

T3 sequence (P28223 whole entry): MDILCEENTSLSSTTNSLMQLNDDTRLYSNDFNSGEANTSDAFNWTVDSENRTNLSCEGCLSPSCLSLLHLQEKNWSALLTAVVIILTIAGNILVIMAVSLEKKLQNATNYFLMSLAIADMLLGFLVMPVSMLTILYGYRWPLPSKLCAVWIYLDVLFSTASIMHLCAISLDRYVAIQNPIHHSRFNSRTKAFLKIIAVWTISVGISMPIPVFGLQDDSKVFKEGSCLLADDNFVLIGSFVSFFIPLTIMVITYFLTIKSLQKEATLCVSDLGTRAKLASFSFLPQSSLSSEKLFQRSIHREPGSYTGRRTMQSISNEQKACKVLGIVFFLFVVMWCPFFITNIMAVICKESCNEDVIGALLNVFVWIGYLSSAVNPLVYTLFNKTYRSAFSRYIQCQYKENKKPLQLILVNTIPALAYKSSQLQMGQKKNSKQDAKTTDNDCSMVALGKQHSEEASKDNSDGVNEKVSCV
T1 sequence (P14416 whole entry): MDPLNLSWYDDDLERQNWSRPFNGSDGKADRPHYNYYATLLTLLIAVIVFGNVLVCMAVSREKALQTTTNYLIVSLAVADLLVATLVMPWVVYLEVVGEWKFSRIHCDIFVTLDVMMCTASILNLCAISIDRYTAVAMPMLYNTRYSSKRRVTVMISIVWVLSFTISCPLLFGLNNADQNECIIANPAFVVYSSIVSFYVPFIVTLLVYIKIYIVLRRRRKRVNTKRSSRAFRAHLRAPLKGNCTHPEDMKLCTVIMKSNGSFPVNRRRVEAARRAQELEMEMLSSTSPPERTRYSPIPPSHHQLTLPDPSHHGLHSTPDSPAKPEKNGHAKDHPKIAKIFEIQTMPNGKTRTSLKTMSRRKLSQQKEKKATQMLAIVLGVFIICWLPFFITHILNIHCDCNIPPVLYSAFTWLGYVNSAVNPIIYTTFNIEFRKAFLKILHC
T2 sequence (P35462 whole entry): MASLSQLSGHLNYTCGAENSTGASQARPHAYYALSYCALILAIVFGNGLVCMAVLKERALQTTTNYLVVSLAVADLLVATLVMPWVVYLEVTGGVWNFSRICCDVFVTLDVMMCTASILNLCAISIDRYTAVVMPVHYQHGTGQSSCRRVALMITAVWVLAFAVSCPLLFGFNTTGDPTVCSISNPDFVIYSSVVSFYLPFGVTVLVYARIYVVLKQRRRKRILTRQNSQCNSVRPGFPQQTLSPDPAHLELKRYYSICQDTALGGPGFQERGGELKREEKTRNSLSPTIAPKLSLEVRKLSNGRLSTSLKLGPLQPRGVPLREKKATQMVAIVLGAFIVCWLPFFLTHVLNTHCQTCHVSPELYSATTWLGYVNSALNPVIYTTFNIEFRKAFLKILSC

| Structure (SMILES) | Ki [1] | Ki [2] | Ki [3] |
| --- | --- | --- | --- |
| CC(=O)N[C@H]1CC[C@H](CCN2CCN(c3noc4cc(F)c(C)cc34)CC2)CC1 [Example 106, N-trans-(4-{2-[4-(6-Fluoro-5-methyl-benzo[d]isoxazol-3-yl)-piperazin-1-yl]-ethyl}-cyclohexyl)-acetamide] | 2380 nM | 9.04 nM | 31.9 nM |
| Cc1cc2c(N3CCN(CC[C@H]4CC[C@H](NC(=O)CC5CC5)CC4)CC3)noc2cc1F [Example 109, 2-Cyclopropyl-N-trans-(4-{2-[4-(6-fluoro-5-methyl-benzo[d]isoxazol-3-yl)-piperazin-1-yl]-ethyl}-cyclohexyl)-acetamide] | 10000 nM | 14.5 nM | 32.6 nM |
| Cc1cc2c(N3CCN(CC[C@H]4CC[C@H](NC(=O)CC5OCCCO5)CC4)CC3)noc2cc1F [Example 111, 2-[1,3]Dioxan-2-yl-N-trans-(4-{2-[4-(6-fluoro-5-methyl-benzo[d]isoxazol-3-yl)-piperazin-1-yl]-ethyl}-cyclohexyl)-acetamide] | 4040 nM | 10.6 nM | 7.66 nM |
| Cc1cc2c(N3CCN(CC[C@H]4CC[C@H](NC(=O)CC5COCCO5)CC4)CC3)noc2cc1F (stereo partly drawn) [Example 113, 2-[1,4]Dioxan-2-yl-N-trans-(4-{2-[4-(6-fluoro-5-methyl-benzo[d]isoxazol-3-yl)-piperazin-1-yl]-ethyl}-cyclohexyl)-acetamide] | > 10500 nM | 25 nM | 14 nM |
| Cc1cc2c(N3CCN(CC[C@H]4CC[C@H](NC(=O)C[C@@H]5COCCO5)CC4)CC3)noc2cc1F [Example 114, 2-(R)-[1,4]Dioxan-2-yl-N-trans-(4-{2-[4-(6-fluoro-5-methyl-benzo[d]isoxazol-3-yl)-piperazin-1-yl]-ethyl}-cyclohexyl)-acetamide] | > 9700 nM | 31 nM | 17 nM |
| Cc1cc2c(N3CCN(CC[C@H]4CC[C@H](NC(=O)C[C@H]5COCCO5)CC4)CC3)noc2cc1F [Example 115, 2-(S)-[1,4]Dioxan-2-yl-N-trans-(4-{2-[4-(6-fluoro-5-methyl-benzo[d]isoxazol-3-yl)-piperazin-1-yl]-ethyl}-cyclohexyl)-acetamide] | > 9700 nM | 38 nM | 10 nM |
| Cc1cc2c(N3CCN(CC[C@H]4CC[C@H](NC(=O)C[C@H](O)C(F)(F)F)CC4)CC3)noc2cc1F [Example 116, (S)-4,4,4-Trifluoro-N-trans-(4-{2-[4-(6-fluoro-5-methyl-benzo[d]isoxazol-3-yl)-piperazin-1-yl]-ethyl}-cyclohexyl)-3-hydroxy-butyramide] | 3280 nM | 20 nM | 33 nM |
| Cc1cc2c(N3CCN(CC[C@H]4CC[C@H](NC(=O)CC5CCCCO5)CC4)CC3)noc2cc1F (stereo partly drawn) [Example 117, N-trans-(4-{2-[4-(6-Fluoro-5-methyl-benzo[d]isoxazol-3-yl)-piperazin-1-yl]-ethyl}-cyclohexyl)-2-(tetrahydro-pyran-2-yl)-acetamide] | > 2000 nM | 33 nM | 8 nM |

Now from value to compound:

| Ki [1] | Ki [2] | Ki [3] | Structure (SMILES) |
| --- | --- | --- | --- |
| 333 nM | 13.9 nM | 2.65 nM | Cc1ccc2c(N3CCN(CC[C@H]4CC[C@H](NC(=O)CC5COCCO5)CC4)CC3)noc2c1 (stereo partly drawn) [Example 102, 2-[1,4]Dioxan-2-yl-N-trans-(4-{2-[4-(6-methyl-benzo[d]isoxazol-3-yl)-piperazin-1-yl]-ethyl}-cyclohexyl)-acetamide] |
| 206 nM | 6.96 nM | 2.3 nM | COC(CC(=O)N[C@H]1CC[C@H](CCN2CCN(c3noc4cc(C)ccc34)CC2)CC1)OC [Example 103, 3,3-Dimethoxy-N-trans-(4-{2-[4-(6-methyl-benzo[d]isoxazol-3-yl)-piperazin-1-yl]-ethyl}-cyclohexyl)-propionamide] |
| 554 nM | 2.59 nM | 20.9 nM | COCCC(=O)N[C@H]1CC[C@H](CCN2CCN(c3noc4ccc(C)cc34)CC2)CC1 [Example 104, 3-Methoxy-N-trans-(4-{2-[4-(5-methyl-benzo[d]isoxazol-3-yl)-piperazin-1-yl]-ethyl}-cyclohexyl)-propionamide] |
| 170 nM | 5 nM | 4 nM | Cc1ccc2c(N3CCN(CC[C@H]4CC[C@H](NC(=O)CS(C)(=O)=O)CC4)CC3)noc2c1 [Example 105, 2-Methanesulfonyl-N-trans-(4-{2-[4-(6-methyl-benzo[d]isoxazol-3-yl)-piperazin-1-yl]-ethyl}-cyclohexyl)-acetamide] |
| 674 nM | 20 nM | 11.2 nM | COCC(=O)N[C@H]1CC[C@H](CCN2CCN(c3noc4cc(F)c(C)cc34)CC2)CC1 [Example 107, N-trans-(4-{2-[4-(6-Fluoro-5-methyl-benzo[d]isoxazol-3-yl)-piperazin-1-yl]-ethyl}-cyclohexyl)-2-methoxy-acetamide] |
| 297 nM | 8 nM | 18.9 nM | COCCC(=O)N[C@H]1CC[C@H](CCN2CCN(c3noc4cc(F)c(C)cc34)CC2)CC1 [Example 108, N-trans-(4-{2-[4-(6-Fluoro-5-methyl-benzo[d]isoxazol-3-yl)-piperazin-1-yl]-ethyl}-cyclohexyl)-3-methoxy-propionamide] |
| 1550 nM | 31.6 nM | 10.1 nM | CCOCC(=O)N[C@H]1CC[C@H](CCN2CCN(c3noc4cc(F)c(C)cc34)CC2)CC1 [Example 110, 2-Ethoxy-N-trans-(4-{2-[4-(6-fluoro-5-methyl-benzo[d]isoxazol-3-yl)-piperazin-1-yl]-ethyl}-cyclohexyl)-acetamide] |
| 119 nM | 4.33 nM | 3.51 nM | O=C(CC1CCOCC1)N[C@H]1CC[C@H](CCN2CCN(c3noc4cc(F)ccc34)CC2)CC1 [Example 112, N-trans-(4-{2-[4-(6-Fluoro-benzo[d]isoxazol-3-yl)-piperazin-1-yl]-ethyl}-cyclohexyl)-2-(tetrahydro-pyran-4-yl)-acetamide] |
| 1070 nM | 22 nM | 21 nM | Cc1cc2c(N3CCN(CC[C@H]4CC[C@H](NC(=O)CC5CCCO5)CC4)CC3)noc2cc1F (stereo partly drawn) [Example 118, N-trans-(4-{2-[4-(6-Fluoro-5-methyl-benzo[d]isoxazol-3-yl)-piperazin-1-yl]-ethyl}-cyclohexyl)-2-(tetrahydro-furan-2-yl)-acetamide] |
| 2270 nM | 53 nM | 10 nM | COC(C)C(=O)N[C@H]1CC[C@H](CCN2CCN(c3noc4cc(F)c(C)cc34)CC2)CC1 (stereo partly drawn) [Example 119, N-trans-(4-{2-[4-(6-Fluoro-5-methyl-benzo[d]isoxazol-3-yl)-piperazin-1-yl]-ethyl}-cyclohexyl)-2-methoxy-propionamide] |
